The structures appear in SMILES notation.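 Grown in 96-well plates, cells were treated for 48 hours with each compound at five concentrations. Insufficient inhibition: endpoint recorded as highest concentration tested. At the TGI there is no net growth.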

These results are taken from PubChem BioAssay (NCI).

The first test has as its system SF-268 CNS. In words: NCI anticancer screen, dose series, 48 h.
In turn, `Clc1ccc(C=Nc2ccc(Oc3ccc(Cl)cc3)c(Cl)c2)cc1` displayed a TGI of 41.1 µM.
Molecule `COC(=O)[C@H](Cc1ccccc1)NC(=O)c1ccc(CNC(=O)/C=C/c2csc(-c3ccccc3)n2)cc1` displayed a TGI above 100 µM.
`N#Cc1ccccc1OCCOc1ccccc1C#N`: the TGI was above 100 µM.
Still for that read-out and setting: in the case of `CCN(/C=C1/C(=O)C(c2ccccc2)N(c2ccccc2)C1=O)CC` (stereo unspecified) it was above 10 µM; in that of `O=[N+]([O-])c1ccc(/C=N/Nc2nc3ccccc3[nH]2)o1`, 67.6 µM; in that of `Cc1cccc2sc(NC(=O)NS(=O)(=O)n3cnc4ccccc43)nc12`, above 100 µM.
For the molecule `COC(=O)C1CCC(=O)N1CN(C(C)=O)c1cccc(O)c1` (stereo unspecified), the TGI was above 100 µM.
With `COc1ccc2nc3c(c(N)c2c1)C1CCC3C1(C)C` (stereo unspecified), the TGI was above 100 µM.
Molecule `CCOC(=O)c1c(NC(=O)c2ccccc2)c(C#N)c2n1CCCCC2` returned a TGI above 100 µM.
Molecule `Oc1c(N2CCCCC2)cc(-c2cc(N3CCCCC3)c(O)c3ccccc23)c2ccccc12` came in with a TGI above 100 µM.
The molecule `O=c1cc(Nc2cccc(O)c2)[nH]c(=O)[nH]1` yielded a TGI above 100 µM.
`C[C@H]1CC[C@@]2(OC1)O[C@H]1C[C@H]3[C@@H]4CC[C@@H]5C[C@@H](OC6OC(CO)C(O)C(O)C6OC6OC(CO)C(O)C(O)C6O)CC[C@]5(C)[C@H]4CC[C@]3(C)[C@H]1[C@@H]2C` (stereo partly specified): the TGI was 4.25 µM.
For the molecule `O=C(Nn1c(-c2ccccc2)nc2ccccc2c1=O)c1ccc(Cl)cc1`, the TGI was above 100 µM.
The molecule `Cc1nc2sc3cccc(Cl)c3n2c(=O)c1N=Nc1ccc(Cl)cc1` showed a TGI above 100 µM.
Regarding `Cc1cc(N(CCC#N)CCC#N)ccc1/C(N=Nc1ccccc1)=N\NC(=O)c1cc(Cl)ccc1O`, the TGI is above 100 µM.
For `CSC(=O)/C=C1\SS/C(=C\C(=O)SC)S1`, the TGI was found to be 6.72 µM.
`Cc1ccc(N=N/C(=N/NC(=O)c2ccccc2)c2ccc(N(CCC#N)CCC#N)cc2C)cc1` had a TGI above 100 µM.
Molecule `CCCCCCCCCCCCCCCCCCNc1ccn(C2OC(COP(=O)(O)OCC3OC(n4ccc(N)nc4=O)C(O)C3O)C(O)C2O)c(=O)n1` (stereo unspecified) displayed a TGI above 100 µM.
`Cc1ccc(S[C@@](C=O)(NC(=O)OCc2ccccc2)C(F)(F)F)cc1` displayed a TGI above 100 µM.
In turn, `CCOc1cnc(C(O)(c2ccccc2)c2ccccc2)o1` returned a TGI above 100 µM.
As to `COC(CN(C)C(=S)Nc1cccc2ccccc12)OC`, the TGI is above 10 µM.
The same measure, in the same setting: in the case of `COc1ccc(CCCCNCc2cccc(CNCCCCc3ccc(OC)cc3)c2)cc1` it was 3.35 µM.

Another test has as its system NCI-H23 lung. Nature of the test: NCI anticancer screen, dose series, 48 h.
Turning to `Clc1ccc(C=Nc2ccc(Oc3ccc(Cl)cc3)c(Cl)c2)cc1`, the TGI stood at 54.2 µM.
Molecule `COC(=O)[C@H](Cc1ccccc1)NC(=O)c1ccc(CNC(=O)/C=C/c2csc(-c3ccccc3)n2)cc1` returned a TGI above 87.4 µM.
For `N#Cc1ccccc1OCCOc1ccccc1C#N`, the TGI was above 100 µM.
As for `CCN(/C=C1/C(=O)C(c2ccccc2)N(c2ccccc2)C1=O)CC` (stereo unspecified), the TGI was above 10 µM.
For the molecule `O=[N+]([O-])c1ccc(/C=N/Nc2nc3ccccc3[nH]2)o1`, the TGI stood at 43.6 µM.
In the case of `Cc1cccc2sc(NC(=O)NS(=O)(=O)n3cnc4ccccc43)nc12`, the TGI came out at 43.6 µM.
On to `COC(=O)C1CCC(=O)N1CN(C(C)=O)c1cccc(O)c1` (stereo unspecified), for which the TGI is above 100 µM.
Consider `COc1ccc2nc3c(c(N)c2c1)C1CCC3C1(C)C` (stereo unspecified), for which the TGI was above 100 µM.
`CCOC(=O)c1c(NC(=O)c2ccccc2)c(C#N)c2n1CCCCC2` registered a TGI above 100 µM.
Regarding `Oc1c(N2CCCCC2)cc(-c2cc(N3CCCCC3)c(O)c3ccccc23)c2ccccc12`, the TGI was 79.7 µM.
`O=c1cc(Nc2cccc(O)c2)[nH]c(=O)[nH]1` yielded a TGI above 100 µM.
Same read-out and setting: next, `C[C@H]1CC[C@@]2(OC1)O[C@H]1C[C@H]3[C@@H]4CC[C@@H]5C[C@@H](OC6OC(CO)C(O)C(O)C6OC6OC(CO)C(O)C(O)C6O)CC[C@]5(C)[C@H]4CC[C@]3(C)[C@H]1[C@@H]2C` (stereo partly specified): 4.06 µM; `O=C(Nn1c(-c2ccccc2)nc2ccccc2c1=O)c1ccc(Cl)cc1`: above 100 µM; `Cc1nc2sc3cccc(Cl)c3n2c(=O)c1N=Nc1ccc(Cl)cc1`: above 100 µM.
Still for that read-out and setting: next, `Cc1cc(N(CCC#N)CCC#N)ccc1/C(N=Nc1ccccc1)=N\NC(=O)c1cc(Cl)ccc1O`: 35.1 µM.
As for `CSC(=O)/C=C1\SS/C(=C\C(=O)SC)S1`, the TGI was 27.6 µM.
The same measure, in the same setting: in the case of `Cc1ccc(N=N/C(=N/NC(=O)c2ccccc2)c2ccc(N(CCC#N)CCC#N)cc2C)cc1` it was above 100 µM; in that of `CCCCCCCCCCCCCCCCCCNc1ccn(C2OC(COP(=O)(O)OCC3OC(n4ccc(N)nc4=O)C(O)C3O)C(O)C2O)c(=O)n1` (stereo unspecified), above 100 µM.
In the case of `Cc1ccc(S[C@@](C=O)(NC(=O)OCc2ccccc2)C(F)(F)F)cc1`, the TGI worked out at 39.8 µM.
Still for that read-out and setting: next, `CCOc1cnc(C(O)(c2ccccc2)c2ccccc2)o1`: above 100 µM; `COC(CN(C)C(=S)Nc1cccc2ccccc12)OC`: above 10 µM; `COc1ccc(CCCCNCc2cccc(CNCCCCc3ccc(OC)cc3)c2)cc1`: 3.37 µM.

A further test concerns RPMI-8226 leukemia. In words: NCI anticancer screen, dose series, 48 h.
`Clc1ccc(C=Nc2ccc(Oc3ccc(Cl)cc3)c(Cl)c2)cc1` yielded a TGI above 100 µM.
The molecule `COC(=O)[C@H](Cc1ccccc1)NC(=O)c1ccc(CNC(=O)/C=C/c2csc(-c3ccccc3)n2)cc1` showed a TGI above 100 µM.
`N#Cc1ccccc1OCCOc1ccccc1C#N` yielded a TGI above 100 µM.
In the case of `CCN(/C=C1/C(=O)C(c2ccccc2)N(c2ccccc2)C1=O)CC` (stereo unspecified), the TGI is above 10 µM.
Regarding `O=[N+]([O-])c1ccc(/C=N/Nc2nc3ccccc3[nH]2)o1`, the TGI amounted to 15.3 µM.
The same measure, in the same setting: next, `Cc1cccc2sc(NC(=O)NS(=O)(=O)n3cnc4ccccc43)nc12`: 84.3 µM; `COC(=O)C1CCC(=O)N1CN(C(C)=O)c1cccc(O)c1` (stereo unspecified): above 100 µM.
Take `COc1ccc2nc3c(c(N)c2c1)C1CCC3C1(C)C` (stereo unspecified): the TGI is 58.7 µM.
Take `CCOC(=O)c1c(NC(=O)c2ccccc2)c(C#N)c2n1CCCCC2`: the TGI is above 100 µM.
`Oc1c(N2CCCCC2)cc(-c2cc(N3CCCCC3)c(O)c3ccccc23)c2ccccc12` displayed a TGI above 100 µM.
The same measure, in the same setting: in the case of `O=c1cc(Nc2cccc(O)c2)[nH]c(=O)[nH]1` it was above 100 µM.
Turning to `C[C@H]1CC[C@@]2(OC1)O[C@H]1C[C@H]3[C@@H]4CC[C@@H]5C[C@@H](OC6OC(CO)C(O)C(O)C6OC6OC(CO)C(O)C(O)C6O)CC[C@]5(C)[C@H]4CC[C@]3(C)[C@H]1[C@@H]2C` (stereo partly specified), the TGI came to 3.97 µM.
Regarding `O=C(Nn1c(-c2ccccc2)nc2ccccc2c1=O)c1ccc(Cl)cc1`, the TGI was above 100 µM.
As for `Cc1nc2sc3cccc(Cl)c3n2c(=O)c1N=Nc1ccc(Cl)cc1`, the TGI is above 100 µM.
For the molecule `Cc1cc(N(CCC#N)CCC#N)ccc1/C(N=Nc1ccccc1)=N\NC(=O)c1cc(Cl)ccc1O`, the TGI is above 100 µM.
In the case of `CSC(=O)/C=C1\SS/C(=C\C(=O)SC)S1`, the TGI came out at 5.27 µM.
For the molecule `Cc1ccc(N=N/C(=N/NC(=O)c2ccccc2)c2ccc(N(CCC#N)CCC#N)cc2C)cc1`, the TGI was above 100 µM.
In the case of `CCCCCCCCCCCCCCCCCCNc1ccn(C2OC(COP(=O)(O)OCC3OC(n4ccc(N)nc4=O)C(O)C3O)C(O)C2O)c(=O)n1` (stereo unspecified), the TGI is above 100 µM.
Same read-out and setting: next, `Cc1ccc(S[C@@](C=O)(NC(=O)OCc2ccccc2)C(F)(F)F)cc1`: 57.2 µM.
Still for that read-out and setting: next, `CCOc1cnc(C(O)(c2ccccc2)c2ccccc2)o1`: above 100 µM.
For `COC(CN(C)C(=S)Nc1cccc2ccccc12)OC`, the TGI is above 10 µM.
Same read-out and setting: next, `COc1ccc(CCCCNCc2cccc(CNCCCCc3ccc(OC)cc3)c2)cc1`: above 100 µM.
